Data reported in patent US8722930B2, “Protease inhibitors” (Orion Corporation, priority 2009, dated 2014).
Like-named read-outs stand apart in the source and are kept apart here.

What was measured:
[1] = molecular target: T1, Purified recombinant matriptase (Homo sapiens, UniProt Q9Y5Y6); experiment: Matriptase fluorescence-based enzymatic assay (Boc-Gln-Ala-Arg-AMC cleavage); format: biochemical
T1 sequence (Q9Y5Y6 1-855): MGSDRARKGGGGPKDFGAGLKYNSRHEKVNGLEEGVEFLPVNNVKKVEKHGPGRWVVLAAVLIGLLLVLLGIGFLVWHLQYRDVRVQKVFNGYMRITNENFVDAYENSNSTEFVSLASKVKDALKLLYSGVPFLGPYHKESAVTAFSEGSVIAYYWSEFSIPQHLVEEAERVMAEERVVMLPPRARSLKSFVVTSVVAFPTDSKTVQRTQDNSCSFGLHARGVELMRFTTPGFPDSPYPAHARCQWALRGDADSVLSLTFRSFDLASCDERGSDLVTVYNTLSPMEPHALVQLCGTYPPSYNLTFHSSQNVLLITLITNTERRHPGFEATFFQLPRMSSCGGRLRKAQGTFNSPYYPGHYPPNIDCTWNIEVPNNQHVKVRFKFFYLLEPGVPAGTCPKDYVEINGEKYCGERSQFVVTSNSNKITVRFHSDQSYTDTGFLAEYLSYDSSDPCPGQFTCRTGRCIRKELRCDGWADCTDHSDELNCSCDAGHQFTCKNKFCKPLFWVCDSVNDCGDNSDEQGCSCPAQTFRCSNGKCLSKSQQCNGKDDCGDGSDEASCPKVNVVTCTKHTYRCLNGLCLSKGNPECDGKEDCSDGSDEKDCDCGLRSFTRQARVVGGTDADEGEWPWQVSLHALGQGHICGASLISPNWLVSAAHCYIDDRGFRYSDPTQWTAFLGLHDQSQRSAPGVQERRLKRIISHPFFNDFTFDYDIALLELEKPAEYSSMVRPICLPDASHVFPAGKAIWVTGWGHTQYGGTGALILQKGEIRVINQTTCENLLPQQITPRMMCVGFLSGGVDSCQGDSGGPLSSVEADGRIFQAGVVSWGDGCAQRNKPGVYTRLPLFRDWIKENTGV
From the text: (§1) Purified recombinant matriptase was used in a fluorescence-based screening assay using Gln-Ala-Arg peptide as a substrate. In this assay the cleavage of AMC from Boc-Gln-Ala-Arg-7-amido-4 methylcoumarin hydrochloride (Boc-Gln-Ala-Arg-AMC) (Sigma, USA) was monitored by measuring the increase in fluorescence intensity of AMC released upon proteolytic cleavage at 480 nm (kex=360 nm). Similarly, enzymatic assays in fluorimetric or colorimetric format for uPA, Factor Xa, thrombin, plasmin and trypsin (Sigma, USA) were established using substrates pyroGlu-Gly-Arg-pNA.HCl, Boc-Gln-Ala-Arg-AMC, CH3OCO-D-CHA-Gly-Arg-PNA.AcoH, Pyro Glu-Phe-Lys—pNA.HCl and Boc-Gln-Ala-Arg-AMC, respectively.

uPA = molecular target: T2, uPA (Homo sapiens, UniProt P00749); experiment: uPA enzymatic assay (selectivity screening); format: biochemical
T2 construct: purchased Sigma, USA
From the text: as §1

Factor Xa = molecular target: T3, Factor Xa (Homo sapiens, UniProt P00742); experiment: Factor Xa enzymatic assay (selectivity screening); format: biochemical
T3 construct: uPA, Factor Xa, thrombin, plasmin and trypsin (Sigma, USA); purchased Sigma, USA
From the text: as §1

thrombin = molecular target: T4, thrombin (Homo sapiens, UniProt P00734); experiment: Thrombin enzymatic assay (selectivity screening); format: biochemical
T4 construct: uPA, Factor Xa, thrombin, plasmin and trypsin (Sigma, USA); purchased Sigma, USA
From the text: as §1

plasmin = molecular target: T5, plasmin (Homo sapiens, UniProt P00747); experiment: Plasmin enzymatic assay (selectivity screening); format: biochemical
T5 construct: uPA, Factor Xa, thrombin, plasmin and trypsin (Sigma, USA); purchased Sigma, USA
From the text: as §1

DU145 cells [2] = experiment: Cytotoxicity, Calcein AM assay, DU145; format: cell-based; details: Homo sapiens, DU-145, 96 h, four days of incubation, read-out: Cell survival at 10 μM (%)
Description: Cytotoxicity of the compounds was tested in cell lines or primary cells using Calcein AM assay. This assay measures cell viability by quantitation of cleaved fluorescent product of a cell permeable substrate that is retained in the cytoplasm of cells with uncompromised cytoplasmic membrane integrity. The cells were seeded into 96-well plate and allowed to adhere for a day followed by addition of compound at several different concentrations. After four days of incubation with the compound, media was removed from the cells followed by addition of PBS and addition of Calcein AM reagent at 1 μM final concentration. The cells were then allowed to incubate at 37° C. for half an hour followed by reading on the fluorimeter. Percent viability was calculated based on fluorescence value obtained at 485/520 nm with cut off at 495 nm.

DU145 cells [3] = experiment: Migration assay in transwell chambers; format: cell-based; details: Homo sapiens, DU-145, 24 hours
Description: Migration assays were performed to determine the effect of matriptase inhibitors on cell motility. Cells were seeded with 10 μM test compound into transwell chambers and allowed to migrate for 24 hours using a combination of 10% FBS and 5 μg/ml fibronectin as chemoattractant.

DU145 cells [4] = experiment: Cell invasion assay (matrigel transwell); format: cell-based; details: Homo sapiens, DU-145, 48 hours
Description: Cell invasion assays were done for quantitating the degree to which invasive cells penetrate a barrier essentially as in migration assay but with the use of matrigel consisting of basement membrane components in the transwell inserts and incubating for 48 hours. The barrier used was matrigel. This was followed by fixing and staining of the transwell insert with 0.5% crystal violet in 25% methanol in order to visualize cells migrated.

[5] = Table 1, read-out: Matriptase Inhibition IC50
[6] = Table 2, read-out: Matriptase IC50

T3 sequence (P00742 235-488 limits assumed): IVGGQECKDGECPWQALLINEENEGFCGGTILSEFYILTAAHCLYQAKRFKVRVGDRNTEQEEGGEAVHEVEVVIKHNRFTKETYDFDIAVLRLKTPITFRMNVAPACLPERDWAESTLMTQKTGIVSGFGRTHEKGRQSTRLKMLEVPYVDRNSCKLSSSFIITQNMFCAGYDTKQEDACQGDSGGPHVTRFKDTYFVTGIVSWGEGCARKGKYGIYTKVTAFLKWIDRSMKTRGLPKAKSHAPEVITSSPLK
T3 sequence (P00742 41-179 partner limits assumed): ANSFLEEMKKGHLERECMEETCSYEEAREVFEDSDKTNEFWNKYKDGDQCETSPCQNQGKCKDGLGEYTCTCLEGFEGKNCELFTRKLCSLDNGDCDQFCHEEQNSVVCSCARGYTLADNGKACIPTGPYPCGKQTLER
T5 sequence (P00747 581-810 limits assumed, species assumed): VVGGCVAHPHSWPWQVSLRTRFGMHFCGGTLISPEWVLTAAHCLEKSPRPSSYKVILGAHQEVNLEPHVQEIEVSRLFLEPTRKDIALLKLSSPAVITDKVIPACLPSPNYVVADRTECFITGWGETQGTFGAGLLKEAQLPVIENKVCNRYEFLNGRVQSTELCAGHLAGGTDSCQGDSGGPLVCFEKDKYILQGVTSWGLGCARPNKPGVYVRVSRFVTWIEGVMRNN
T5 sequence (P00747 97-580 partner limits assumed, species assumed): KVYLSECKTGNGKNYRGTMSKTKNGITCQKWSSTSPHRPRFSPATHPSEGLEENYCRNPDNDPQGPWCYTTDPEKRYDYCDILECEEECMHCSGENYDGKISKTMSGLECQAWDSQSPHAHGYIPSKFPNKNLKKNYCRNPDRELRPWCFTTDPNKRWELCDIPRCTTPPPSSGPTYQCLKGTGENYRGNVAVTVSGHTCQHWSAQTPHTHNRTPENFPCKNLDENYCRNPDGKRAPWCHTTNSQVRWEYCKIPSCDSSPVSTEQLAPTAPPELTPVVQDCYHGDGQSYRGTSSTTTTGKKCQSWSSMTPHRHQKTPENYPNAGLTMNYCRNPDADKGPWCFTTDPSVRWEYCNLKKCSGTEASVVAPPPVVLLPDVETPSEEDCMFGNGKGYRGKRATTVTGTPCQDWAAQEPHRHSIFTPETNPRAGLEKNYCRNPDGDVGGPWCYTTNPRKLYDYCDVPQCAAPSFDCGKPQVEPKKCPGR

IC50 [1, 5] [nM]	inhibition at 5 µM (uPA) [%]	inhibition at 5 µM (Factor Xa) [%]	inhibition at 5 µM (thrombin) [%]	inhibition at 5 µM (plasmin) [%]	IC50 [1, 6] [nM]	Compound	viability at 10 µM (DU145 cells [2]) [%]	inhibition at 10 µM (DU145 cells [3]) [%]	inhibition at 10 µM (DU145 cells [4]) [%]
5	11	96	76	22		N=C(N)c1cccc(COc2cc(OCc3cccc(C(=N)N)c3)cc(C(=O)NC3CCC(N)CC3)c2)c1 (stereo not shown) [Example 77, N-(4-Aminocyclohexyl)-3,5-bis-(3-carbamimidoyl Benzyloxy)benzamide]			
63.4	5	5	36	10	63	N=C(N)c1ccc(Oc2cc(Oc3ccc(CN)cc3)cc(C(=O)NC3CCC(N)CC3)c2)cc1 (stereo not shown) [Example 84, N-(4-Aminocyclohexyl)-3-(4-aminomethylphenoxy)-5-(4-carbamimidoylphenoxy)benzamide]	100	80	92
10	11	93	36	30		N=C(N)c1ccc(Oc2cc(OCc3cccc(C(=N)N)c3)cc(C(=O)NC3CCC(N)CC3)c2)cc1 (stereo not shown) [Example 42, N-(4-Aminocyclohexyl)-3-(3-carbamimidoylbenzyloxy)-5-(4-carbamimidoylphenoxy)benzamide]			
48	6	47	-12	21		N=C(N)c1ccc(Oc2cc(OCc3ccc(CN)cc3)cc(C(=O)NC3CCC(N)CC3)c2)cc1 (stereo not shown) [Example 45, N-(4-Aminocyclohexyl)-3-(4-aminomethylbenzyloxy)-5-(4-carbamimidoylphenoxy)benzamide]			
16.1	3	43	21	5	16	N=C(N)CCCCCOc1cc(Oc2ccc(C(=N)N)cc2)cc(C(=O)NC2CCC(N)CC2)c1 (stereo not shown) [Example 66, N-(4-Aminocyclohexyl)-3-(5-carbamimidoylpentyloxy)-5-(4-carbamimidoyl-phenoxy)-benzamide]	87	88	95
88	5	94	61	40		N=C(N)c1ccc(Oc2cc(Oc3ccc(C(=N)N)cc3)cc(C(=O)N3CCN(CCN)CC3)c2)cc1 [Example 31, 2-{4-[3,5-Bis-(4-carbamimidoyl-phenoxy)-benzoyl]-piperazin-1-yl}-ethylamine]			
16	7	76	45	33		N=C(N)c1ccc(COc2cc(Oc3ccc(C(=N)N)cc3)cc(C(=O)NC3CCC(N)CC3)c2)cc1 (stereo not shown) [Example 43, N-(4-Aminocyclohexyl)-3-(4-carbamimidoylbenzyloxy)-5-(4-carbamimidoylphenoxy)benzamide]			
18.9	9	81	26	22		N=C(N)c1ccc(Oc2cc(Oc3ccc(C(=N)N)cc3Cl)cc(C(=O)NC3CCC(N)CC3)c2)cc1 (stereo not shown) [Example 69, N-(4-Aminocyclohexyl)-3-(4-carbamimidoyl-2-chlorophenoxy)-5-(4-carbamimidoylphenoxy)benzamide]			
					158	N=C(N)c1cc(F)c(Oc2cc(Oc3ccc(CN)cc3)cc(C(=O)NC3CCC(N)CC3)c2)c(F)c1 (stereo not shown) [Example 87, N-(4-Amino-cyclohexyl)-3-(4-aminomethyl-phenoxy)-5-(4-carbamimidoyl-2,6-difluoro-phenoxy)-benzamide]	113	47	88
